{"source": "patent US20110288154A1", "about": "“RNA Interference Mediated Inhibition of Epithelial Sodium Channel (ENaC) Gene Expression Using Short Interfering Nucleic Acid (siNA)” (MERCK & CO., INC., priority 2008, published 2011)", "tested_on": "ENaC", "test": "FLIPR assay of sodium transport in recombinant HEK cells over expressing ENaC", "type": "cell-based, human", "conditions": "recombinant HEK cells expressing ENaC", "experimental": "Recombinant HEK293 cell line (expressing ENaC beta & gamma) SCNN1B (P618AY620L)+SCNN1G (P624stop) #24. were grown at 37 deg in the presence of CO2 and were cultured in M1 medium M1+0.5 mg/ml geneticin and 0.2 mg/ml hygromycin.\nFunctional Effects on ENaC via FLIPR in Cells Over Expressing ENaCa: A reverse transfection methodology was used to transfect the HEK recombinant cell line. 5 ul of siRNA (diluted in Optimem to the appropriate concentration) was mixed with 5 ul of the Gemini lipid transfection reagent diluted in Optimem in 384 well non-coated FLIPR plate. Plates were incubated at room temperature for 20 minutes to allow complex formation. Cells were harvested, spun down, diluted to 3×10^5/ml and plated out at 40 ul/well (12K/well) in 384 well plate format containing the transfection complex. The plates were incubated overnight for 20 hours. The cells were then transduced with BacMam virus expressing ENaC alpha (BacMam viruses expressing SCNN1A, GRITS 29703, titre 0.356×10^8/ml). 30 ul of virus was added (1.7%) 20K/well, MOI was approximately 1. Cells were incubated for 24 hours. On day of the FLIPR assay, media was aspirated, leaving 10 ul volume. 20 ul of dye per well was loaded (FMP2 Blue dye, R8181, MDS. For each pot, 133 ml Tyrodes buffer was diluted to make 1× stock prior to assay). The plate was incubated for 0.5 hours at room temperature and 10 ul of the compound added on-line prior to FLIPR read (FLIPR settings: protocol Na MP.fcf, with Exposure length 0.4 sec and Filter #2). Compound plate: 1 ul volume, column 1, 2 and 3 are 16, 4 and 0 uM amiloride final (1/200 dilution) (IC80, IC50 and ctrl)."}
{"compound": "N=C(N)NC(=O)c1nc(Cl)c(N)nc1N", "note": "[Amiloride, reference compound]", "values": [{"measurement": "IC50", "setting": "read-out: IC50 of inhibitor in FLIPR assay", "value": 4, "unit": "µM"}, {"measurement": "IC80", "setting": "read-out: IC80 of inhibitor in FLIPR assay", "value": 16, "unit": "µM"}]}
